# Measured values as given in patent US20260183295A1, “METHODS AND COMPOSITIONS FOR TREATING CANCER” (Onconova Therapeutics, Inc., priority 2022, published 2026).
# Legend:
# Assay in all cases: CETSA-MS, MDA-MB-231 intact cells
# Format in all cases: cell-based
# Conditions in all cases: 2 μM and 20 μM
# [1] = target: T1, CST3 (Homo sapiens, UniProt P01034)
# T1 construct: 148 targets unique to Compound 1 in MDA-MB-231 intact cells; endogenous in cells; host or cells: MDA-MB-231
# Procedure: (§1) TNBC MDA-MB-231 cells were grown at 37° C. in 5% CO2 and suspended in warm media and split into 4 equal volumes. […] Cells were incubated and then pelleted. Following pelleting, the cells were washed, resuspended, and heated in a thermal gradient. Following heating, the samples were flash frozen and lysed in lysis buffer, agitated by vortex, and sonicated prior to centrifugation. The supernatant was collected and denaturation buffer added. Cold acetone was then added to the cell samples, and protein collected by centrifugation. Pellets were then washed twice with cold acetone and the washed pellets prior to labeling.
# (§2) The intact cell protein samples and lysate protein samples were then digested and labeled for mass spectrometry analysis according to the manufacturer's recommended protocols. Digested and labeled protein samples were analyzed by mass spectrometry proteomic analysis and the resulting protein targets were analyzed and plotted.
# [2] = target: T2, NPM1 (Homo sapiens, UniProt P06748)
# T2 construct: endogenous in cells; host or cells: MDA-MB-231
# Procedure: as §1, §2
# [3] = target: T3, TTK (Homo sapiens, UniProt P33981)
# T3 construct: endogenous in cells; host or cells: MDA-MB-231
# Procedure: as §1, §2
# [4] = target: T4, STX5 (Homo sapiens, UniProt Q13190)
# T4 construct: endogenous in cells; host or cells: MDA-MB-231
# Procedure: as §1, §2
# [5] = test system: FBRS
# Procedure: as §1, §2
# [6] = target: T5, TIMP2 (Homo sapiens, UniProt P16035)
# T5 construct: endogenous in cells; host or cells: MDA-MB-231
# Procedure: as §1, §2
# [7] = target: T6, TLE5 (Homo sapiens, UniProt Q08117)
# T6 construct: endogenous in cells; host or cells: MDA-MB-231
# Procedure: as §1, §2
# [8] = target: T7, NAPG (Homo sapiens, UniProt Q99747)
# T7 construct: endogenous in cells; host or cells: MDA-MB-231
# Procedure: as §1, §2
# [9] = target: T8, FOXK1 (Homo sapiens, UniProt P85037)
# T8 construct: endogenous in cells; host or cells: MDA-MB-231
# Procedure: as §1, §2
# [10] = target: T9, ELAVL1 (Homo sapiens, UniProt Q15717)
# T9 construct: 148 targets unique to Compound 1 in MDA-MB-231 intact cells; endogenous in cells; host or cells: MDA-MB-231
# Procedure: as §1, §2
# [11] = target: T10, LRRC59 (Homo sapiens, UniProt Q96AG4)
# T10 construct: endogenous in cells; host or cells: MDA-MB-231
# Procedure: as §1, §2
# [12] = target: T11, CAVIN1 (Homo sapiens, UniProt Q6NZI2)
# T11 construct: endogenous in cells; host or cells: MDA-MB-231
# Procedure: as §1, §2
# [13] = target: T12, JMY (Homo sapiens, UniProt Q8N9B5)
# T12 construct: endogenous in cells; host or cells: MDA-MB-231
# Procedure: as §1, §2
# [14] = target: T13, SHCBP1 (Homo sapiens, UniProt Q8NEM2)
# T13 construct: endogenous in cells; host or cells: MDA-MB-231
# Procedure: as §1, §2
# [15] = target: T14, MATR3 (Homo sapiens, UniProt P43243)
# T14 construct: endogenous in cells; host or cells: MDA-MB-231
# Procedure: as §1, §2
# [16] = target: T15, METTL18 (Homo sapiens, UniProt O95568)
# T15 construct: endogenous in cells; host or cells: MDA-MB-231
# Procedure: as §1, §2
# [17] = target: T16, WTAP (Homo sapiens, UniProt Q15007)
# T16 construct: endogenous in cells; host or cells: MDA-MB-231
# Procedure: as §1, §2
# [18] = target: T17, ANP32B (Homo sapiens, UniProt Q92688)
# T17 construct: endogenous in cells; host or cells: MDA-MB-231
# Procedure: as §1, §2
# [19] = target: T18, TAF15 (Homo sapiens, UniProt Q92804)
# T18 construct: endogenous in cells; host or cells: MDA-MB-231
# Procedure: as §1, §2
# [20] = target: T19, PIK3R4 (Homo sapiens, UniProt Q99570)
# T19 construct: endogenous in cells; host or cells: MDA-MB-231
# Procedure: as §1, §2
# [21] = target: T20, CBX5 (Homo sapiens, UniProt P45973)
# T20 construct: endogenous in cells; host or cells: MDA-MB-231
# Procedure: as §1, §2
# [22] = target: T21, CPD (Homo sapiens, UniProt O75976)
# T21 construct: 148 targets unique to Compound 1 in MDA-MB-231 intact cells; endogenous in cells; host or cells: MDA-MB-231
# Procedure: as §1, §2
# [23] = target: T22, GALNT7 (Homo sapiens, UniProt Q86SF2)
# T22 construct: 148 targets unique to Compound 1 in MDA-MB-231 intact cells; endogenous in cells; host or cells: MDA-MB-231
# Procedure: as §1, §2
# [24] = target: T23, ARRB2 (Homo sapiens, UniProt P32121)
# T23 construct: endogenous in cells; host or cells: MDA-MB-231
# Procedure: as §1, §2
# [25] = target: T24, GAK (Homo sapiens, UniProt O14976)
# T24 construct: 148 targets unique to Compound 1 in MDA-MB-231 intact cells; endogenous in cells; host or cells: MDA-MB-231
# Procedure: as §1, §2
# [26] = target: T25, FOS (Homo sapiens, UniProt P01100)
# T25 construct: endogenous in cells; host or cells: MDA-MB-231
# Procedure: as §1, §2
# [27] = target: T26, LYPLA2 (Homo sapiens, UniProt O95372)
# T26 construct: endogenous in cells; host or cells: MDA-MB-231
# Procedure: as §1, §2
# [28] = target: T27, SNX6 (Homo sapiens, UniProt Q9UNH7)
# T27 construct: endogenous in cells; host or cells: MDA-MB-231
# Procedure: as §1, §2
# [29] = target: T28, ACAA1 (Homo sapiens, UniProt P09110)
# T28 construct: endogenous in cells; host or cells: MDA-MB-231
# Procedure: as §1, §2
# [30] = target: T29, MPHOSPH8 (Homo sapiens, UniProt Q99549)
# T29 construct: endogenous in cells; host or cells: MDA-MB-231
# Procedure: as §1, §2
# [31] = target: T30, LOXL2 (Homo sapiens, UniProt Q9Y4K0)
# T30 construct: endogenous in cells; host or cells: MDA-MB-231
# Procedure: as §1, §2
# [32] = target: T31, IFT52 (Homo sapiens, UniProt Q9Y366)
# T31 construct: endogenous in cells; host or cells: MDA-MB-231
# Procedure: as §1, §2
# [33] = target: T32, HNRNPUL2 (Homo sapiens, UniProt Q1KMD3)
# T32 construct: endogenous in cells; host or cells: MDA-MB-231
# Procedure: as §1, §2
# [34] = target: T33, SCP2 (Homo sapiens, UniProt P22307)
# T33 construct: endogenous in cells; host or cells: MDA-MB-231
# Procedure: as §1, §2
# [35] = target: T34, PHF8 (Homo sapiens, UniProt Q9UPP1)
# T34 construct: endogenous in cells; host or cells: MDA-MB-231
# Procedure: as §1, §2
# [36] = target: T35, SGPP1 (Homo sapiens, UniProt Q9BX95)
# T35 construct: endogenous in cells; host or cells: MDA-MB-231
# Procedure: as §1, §2
# T23 sequence (P32121 whole entry): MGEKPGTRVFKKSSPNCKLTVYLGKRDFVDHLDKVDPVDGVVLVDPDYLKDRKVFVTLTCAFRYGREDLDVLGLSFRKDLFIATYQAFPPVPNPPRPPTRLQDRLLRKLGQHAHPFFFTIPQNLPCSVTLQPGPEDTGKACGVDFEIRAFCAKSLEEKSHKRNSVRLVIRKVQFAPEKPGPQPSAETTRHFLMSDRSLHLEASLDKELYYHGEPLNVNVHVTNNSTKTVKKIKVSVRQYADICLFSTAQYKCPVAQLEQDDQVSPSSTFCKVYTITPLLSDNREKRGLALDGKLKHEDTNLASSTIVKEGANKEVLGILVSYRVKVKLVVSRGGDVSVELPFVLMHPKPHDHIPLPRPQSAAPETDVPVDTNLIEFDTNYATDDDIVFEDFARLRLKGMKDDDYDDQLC
# T26 sequence (O95372 whole entry): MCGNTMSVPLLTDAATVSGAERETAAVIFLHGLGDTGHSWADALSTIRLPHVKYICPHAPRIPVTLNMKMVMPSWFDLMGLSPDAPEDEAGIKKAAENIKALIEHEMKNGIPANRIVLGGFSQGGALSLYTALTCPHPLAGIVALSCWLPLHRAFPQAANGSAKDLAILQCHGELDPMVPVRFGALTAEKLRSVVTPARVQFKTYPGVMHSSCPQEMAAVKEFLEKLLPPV
# T14 sequence (P43243 whole entry): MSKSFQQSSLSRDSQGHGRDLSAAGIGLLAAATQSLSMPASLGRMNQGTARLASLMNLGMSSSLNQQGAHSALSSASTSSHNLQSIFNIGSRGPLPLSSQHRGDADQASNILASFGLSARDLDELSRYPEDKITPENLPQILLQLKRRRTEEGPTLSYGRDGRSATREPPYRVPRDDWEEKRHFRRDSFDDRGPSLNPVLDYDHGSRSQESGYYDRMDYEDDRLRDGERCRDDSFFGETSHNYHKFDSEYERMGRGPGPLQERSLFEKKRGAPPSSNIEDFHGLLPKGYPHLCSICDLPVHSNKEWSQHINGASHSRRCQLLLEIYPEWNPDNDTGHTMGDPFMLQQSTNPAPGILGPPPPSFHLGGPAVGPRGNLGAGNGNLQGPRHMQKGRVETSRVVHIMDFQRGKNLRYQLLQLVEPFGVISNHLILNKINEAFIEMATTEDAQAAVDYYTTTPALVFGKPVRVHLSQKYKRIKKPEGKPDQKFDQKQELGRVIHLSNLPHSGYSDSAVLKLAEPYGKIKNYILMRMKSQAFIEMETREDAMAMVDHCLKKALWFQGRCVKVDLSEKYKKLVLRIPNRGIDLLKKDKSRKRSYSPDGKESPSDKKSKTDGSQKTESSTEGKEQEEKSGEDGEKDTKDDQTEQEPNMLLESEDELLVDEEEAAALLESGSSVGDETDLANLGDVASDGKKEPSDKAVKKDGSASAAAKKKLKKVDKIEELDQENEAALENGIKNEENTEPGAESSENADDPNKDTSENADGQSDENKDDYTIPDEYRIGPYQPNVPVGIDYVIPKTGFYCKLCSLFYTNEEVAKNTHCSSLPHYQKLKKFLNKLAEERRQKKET
# T6 sequence (Q08117 whole entry): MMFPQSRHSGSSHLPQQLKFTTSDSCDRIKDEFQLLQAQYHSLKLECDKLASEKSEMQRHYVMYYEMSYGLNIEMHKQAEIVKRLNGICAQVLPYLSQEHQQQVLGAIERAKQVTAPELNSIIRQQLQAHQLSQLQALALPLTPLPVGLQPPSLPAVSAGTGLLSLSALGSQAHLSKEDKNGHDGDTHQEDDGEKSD
# T4 sequence (Q13190 whole entry): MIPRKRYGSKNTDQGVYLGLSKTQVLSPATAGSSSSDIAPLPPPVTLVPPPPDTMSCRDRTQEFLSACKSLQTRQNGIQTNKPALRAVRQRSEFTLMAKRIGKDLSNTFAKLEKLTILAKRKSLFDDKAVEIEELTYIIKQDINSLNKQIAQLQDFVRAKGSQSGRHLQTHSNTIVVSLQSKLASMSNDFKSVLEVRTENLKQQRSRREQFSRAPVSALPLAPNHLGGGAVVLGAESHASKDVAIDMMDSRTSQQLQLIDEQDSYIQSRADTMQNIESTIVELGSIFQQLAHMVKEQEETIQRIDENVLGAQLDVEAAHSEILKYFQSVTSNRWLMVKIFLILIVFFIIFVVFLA
# T10 sequence (Q96AG4 whole entry): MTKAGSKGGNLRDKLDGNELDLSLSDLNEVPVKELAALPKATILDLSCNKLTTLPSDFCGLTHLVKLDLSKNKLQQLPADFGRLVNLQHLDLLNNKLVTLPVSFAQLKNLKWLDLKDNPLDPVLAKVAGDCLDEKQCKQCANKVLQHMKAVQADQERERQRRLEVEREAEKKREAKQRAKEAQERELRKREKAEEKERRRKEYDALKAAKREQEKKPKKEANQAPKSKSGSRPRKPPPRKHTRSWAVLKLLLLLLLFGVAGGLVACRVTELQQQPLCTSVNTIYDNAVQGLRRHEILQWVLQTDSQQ
# T30 sequence (Q9Y4K0 26-774): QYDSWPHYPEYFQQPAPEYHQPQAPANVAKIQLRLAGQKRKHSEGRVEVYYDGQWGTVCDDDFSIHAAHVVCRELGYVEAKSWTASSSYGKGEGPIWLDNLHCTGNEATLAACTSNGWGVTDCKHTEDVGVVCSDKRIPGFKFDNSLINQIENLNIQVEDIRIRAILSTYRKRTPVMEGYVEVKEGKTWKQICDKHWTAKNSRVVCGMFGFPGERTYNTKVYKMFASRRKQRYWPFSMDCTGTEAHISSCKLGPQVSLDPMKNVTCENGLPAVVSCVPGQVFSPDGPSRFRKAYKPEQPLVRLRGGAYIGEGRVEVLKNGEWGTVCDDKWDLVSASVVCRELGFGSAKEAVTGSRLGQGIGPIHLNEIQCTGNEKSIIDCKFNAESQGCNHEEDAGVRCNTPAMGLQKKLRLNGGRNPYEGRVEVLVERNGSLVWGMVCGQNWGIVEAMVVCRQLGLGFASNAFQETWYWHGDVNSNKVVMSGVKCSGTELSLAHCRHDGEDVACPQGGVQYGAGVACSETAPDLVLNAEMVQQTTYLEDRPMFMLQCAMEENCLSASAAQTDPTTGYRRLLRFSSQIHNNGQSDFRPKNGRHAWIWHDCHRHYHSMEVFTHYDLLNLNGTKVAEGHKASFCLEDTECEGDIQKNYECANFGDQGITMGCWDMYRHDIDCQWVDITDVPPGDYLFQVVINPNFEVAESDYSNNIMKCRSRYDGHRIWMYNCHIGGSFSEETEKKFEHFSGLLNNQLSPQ
# T1 sequence (P01034 27-146): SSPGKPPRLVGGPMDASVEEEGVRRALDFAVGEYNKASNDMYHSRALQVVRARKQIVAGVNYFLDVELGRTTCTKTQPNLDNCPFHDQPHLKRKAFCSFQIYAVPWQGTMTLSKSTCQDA
# T2 sequence (P06748 whole entry): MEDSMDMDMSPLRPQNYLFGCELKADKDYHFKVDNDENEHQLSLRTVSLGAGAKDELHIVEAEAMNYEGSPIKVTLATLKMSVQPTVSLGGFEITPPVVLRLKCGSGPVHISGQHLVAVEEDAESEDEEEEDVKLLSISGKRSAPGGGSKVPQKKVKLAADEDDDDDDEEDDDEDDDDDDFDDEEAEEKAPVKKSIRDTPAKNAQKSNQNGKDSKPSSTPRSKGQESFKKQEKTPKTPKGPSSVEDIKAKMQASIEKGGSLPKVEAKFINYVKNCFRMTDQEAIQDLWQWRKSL
# T13 sequence (Q8NEM2 whole entry): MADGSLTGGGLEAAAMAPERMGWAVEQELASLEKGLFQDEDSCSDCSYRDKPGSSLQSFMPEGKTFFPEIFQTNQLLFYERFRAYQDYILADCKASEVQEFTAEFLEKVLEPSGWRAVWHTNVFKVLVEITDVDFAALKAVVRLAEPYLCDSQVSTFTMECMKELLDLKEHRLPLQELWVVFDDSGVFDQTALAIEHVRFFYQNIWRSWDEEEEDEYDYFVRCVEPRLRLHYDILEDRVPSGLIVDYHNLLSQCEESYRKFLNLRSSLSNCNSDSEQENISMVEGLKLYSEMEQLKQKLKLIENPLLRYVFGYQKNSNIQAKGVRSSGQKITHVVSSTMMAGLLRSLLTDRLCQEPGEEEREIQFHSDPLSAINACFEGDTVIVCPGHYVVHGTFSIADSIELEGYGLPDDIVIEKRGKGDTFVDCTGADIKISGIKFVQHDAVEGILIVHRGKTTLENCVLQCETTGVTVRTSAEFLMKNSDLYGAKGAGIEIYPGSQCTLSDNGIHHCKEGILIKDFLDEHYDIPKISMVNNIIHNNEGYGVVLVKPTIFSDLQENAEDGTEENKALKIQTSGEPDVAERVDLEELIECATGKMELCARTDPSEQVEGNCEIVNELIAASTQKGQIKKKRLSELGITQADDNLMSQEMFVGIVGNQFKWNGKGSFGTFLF
# T28 sequence (P09110 27-424): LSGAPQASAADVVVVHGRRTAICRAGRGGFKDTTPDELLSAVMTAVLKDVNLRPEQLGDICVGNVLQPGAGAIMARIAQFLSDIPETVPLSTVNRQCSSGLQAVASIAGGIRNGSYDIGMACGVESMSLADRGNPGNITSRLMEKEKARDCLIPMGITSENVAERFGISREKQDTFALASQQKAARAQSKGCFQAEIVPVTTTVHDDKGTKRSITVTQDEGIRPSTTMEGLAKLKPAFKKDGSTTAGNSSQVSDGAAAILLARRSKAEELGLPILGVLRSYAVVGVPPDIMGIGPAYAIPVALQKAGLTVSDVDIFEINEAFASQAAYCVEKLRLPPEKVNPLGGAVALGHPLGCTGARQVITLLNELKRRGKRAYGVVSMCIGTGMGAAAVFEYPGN
# T5 sequence (P16035 27-220): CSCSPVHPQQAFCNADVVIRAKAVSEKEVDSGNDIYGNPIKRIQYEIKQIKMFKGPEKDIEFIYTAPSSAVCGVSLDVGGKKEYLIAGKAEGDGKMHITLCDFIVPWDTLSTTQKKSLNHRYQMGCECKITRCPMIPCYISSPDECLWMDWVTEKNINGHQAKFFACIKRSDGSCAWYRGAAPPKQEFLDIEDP
smiles,measurement,setting,value
"CN1CCN(c2ccc(Nc3ncc4cc(C#N)c(=O)n(C5CCCC5)c4n3)cc2)CC1 [Compound 1, 8-cyclopentyl-2-((4-(4-methylpiperazin-1-yl)phenyl)amino)-7-oxo-7,8-dihydropyrido[2,3-d]pyrimidine-6-carbonitrile]",Group (CETSA-MS thermal shift),[1],Stabilization
same,Group (CETSA-MS thermal shift),[2],Destabilization
same,Group (CETSA-MS thermal shift),[3],Stabilization
same,Group (CETSA-MS thermal shift),[4],Stabilization
same,Group (CETSA-MS thermal shift),[5],Stabilization
same,Group (CETSA-MS thermal shift),[6],Stabilization
same,Group (CETSA-MS thermal shift),[7],Destabilization
same,Group (CETSA-MS thermal shift),[8],Stabilization
same,Group (CETSA-MS thermal shift),[9],Destabilization
same,Group (CETSA-MS thermal shift),[10],Stabilization
same,Group (CETSA-MS thermal shift),[11],Stabilization
same,Group (CETSA-MS thermal shift),[12],Stabilization
same,Group (CETSA-MS thermal shift),[13],Stabilization
same,Group (CETSA-MS thermal shift),[14],Destabilization
same,Group (CETSA-MS thermal shift),[15],Stabilization
same,Group (CETSA-MS thermal shift),[16],Stabilization
same,Group (CETSA-MS thermal shift),[17],Stabilization
same,Group (CETSA-MS thermal shift),[18],Destabilization
same,Group (CETSA-MS thermal shift),[19],Stabilization
same,Group (CETSA-MS thermal shift),[20],Stabilization
same,Group (CETSA-MS thermal shift),[21],Stabilization
same,Group (CETSA-MS thermal shift),[22],Stabilization
same,Group (CETSA-MS thermal shift),[23],Stabilization
same,Group (CETSA-MS thermal shift),[24],Stabilization
same,Group (CETSA-MS thermal shift),[25],Stabilization
same,Group (CETSA-MS thermal shift),[26],Destabilization
same,Group (CETSA-MS thermal shift),[27],Destabilization
same,Group (CETSA-MS thermal shift),[28],Destabilization
same,Group (CETSA-MS thermal shift),[29],Destabilization
same,Group (CETSA-MS thermal shift),[30],Stabilization
same,Group (CETSA-MS thermal shift),[31],Stabilization
same,Group (CETSA-MS thermal shift),[32],Stabilization
same,Group (CETSA-MS thermal shift),[33],Stabilization
same,Group (CETSA-MS thermal shift),[34],Destabilization
same,Group (CETSA-MS thermal shift),[35],Stabilization
same,Group (CETSA-MS thermal shift),[36],Stabilization
